Test results taken from publication PMC6158189, “A pharmacological probe identifies cystathionine β-synthase as a new negative regulator for ferroptosis” (Cell Death & Disease, 2018).

Key:
hCSE = hCSE (Homo sapiens, UniProt P32929); assay: purified hCSE enzyme assay; assay type: biochemical; design: human CBS or hCSE full-length (CBS-FL or CSE) was subcloned into pGEX-KG, pcDNA3 or pCDH vector; GST (N); made in house; host or cells: E. coli BL21
Description: Fig. 1 CH004 inhibits the activity of hCBS in the in vitro purified enzyme assays under different assay conditions. a A scheme for the cascade enzymatic reactions catalyzed by CBS or CSE. Cth, cystathionine. b, c Inhibitory effects of CH004 on the activity of hCBS-413 (b) or hCSE (c). The enzyme activities were monitored for various concentrations of CH004 under the standard conditions (50 mM Tris-HCl, pH 8.6; “Materials and Methods” section). The result is shown as percentages of the control (DMSO, 100%). The data are shown as means ± SDS (n = 3). d The dose-dependent inhibition of CH004 on the hCBS-413 activity was measured by the tandem-well-based assay under the standard conditions except using 50 mM Hepes buffer (pH 7.4) instead of 50 mM Tris-HCl (pH 8.6). Means ± SDs (n = 3). e The dose-dependent inhibition of CH004 on the CBS activity measured by methylene blue method. […] After 80 min, the assay was stopped by added 10 μL 10% ZnAC and the generated H2S was quantified by N,N-dimethyl-p-phenylenediamine to give an absorbance at 670 nm (for details, see Materials and Methods section; ref. [53]).
The IC50 values of CH004 for hCBS-413, hCBS-413 mutants, hCBS-FL, hCSE or hDDC were determined according to the standard assay conditions otherwise indicated.

HEK293T cells = assay: intracellular ROS (DCFH-DA, flow cytometry); assay type: cell-based; details: 12 h
Description: Fig. 5 In situ reduction of CBS activity and H2S in mitochondria by CH004 is coupled with an increase of intracellular ROS. a, b CH004 dose-dependently elevates ROS levels in both HepG2 (a) and HEK293T cells (b). The cells were treated with CH004 for 12 h or with 1 mM H2O2 for 30 min before the staining with DCFH-DA (Molecular Probes) and the analyzsis by flow cytometry (“Materials and Methods” section). Means ± SDS (n = 3). […] HepG2 cells were incubated with indicated inhibitors for 8 h before staining with the mitochondria tracker Mito-tracker® Green (Invitrogen) and the AzMC probe. Cyan represents the colocalization of H2S (blue) and the mitochondria tracker (green). Bars: 50 μm. d hCBS co-localizes with the mitochondria in HepG2 and HEK293T cells. HepG2 and HEK293T cells were stained with an anti-CBS antibody (3E1, 1:200; Abnova) for hCBS (red), Mito-tracker® Green for the mitochondria (green) and DAPI for the nucleus (blue). […]
To investigate the intracellular ROS levels, HEK293T or HepG2 cells were seeded in 6-well plates for one day, then incubated with the indicated inhibitors and 1 mM H2O2 for 12 h and 30 min, respectively. After trypsinization and one wash in PBS, the collected cells were resuspended in PBS and incubated with 100 μM probe DCFH-DA for 30 min at 37 °C before being analyzed using an LSR Fortessa flow cytometer.

hCSE, sequence (P32929 whole entry): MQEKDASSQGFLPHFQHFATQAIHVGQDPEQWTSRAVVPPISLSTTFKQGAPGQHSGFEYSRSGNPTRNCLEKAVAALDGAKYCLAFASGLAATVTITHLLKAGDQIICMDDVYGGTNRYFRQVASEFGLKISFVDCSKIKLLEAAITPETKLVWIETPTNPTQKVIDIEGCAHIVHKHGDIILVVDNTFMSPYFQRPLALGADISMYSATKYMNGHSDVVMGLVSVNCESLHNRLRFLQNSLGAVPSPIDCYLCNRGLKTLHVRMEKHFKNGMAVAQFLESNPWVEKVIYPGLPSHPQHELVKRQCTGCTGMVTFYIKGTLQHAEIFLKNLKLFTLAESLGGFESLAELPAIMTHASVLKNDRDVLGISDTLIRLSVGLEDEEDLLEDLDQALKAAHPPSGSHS

## Cn1nc(Cc2ccccc2)nc2c(=O)n(C)c(=O)nc1-2 [CH004, 3-benzyl-1,6-dimethylpyrimido[5,4-e][1,2,4]triazine-5,7(1H,6H)-dione]
hCSE; IC50 of hCSE / IC50 of hCBS-413
  Fold selectivity hCSE vs hCBS-413: 29.9 fold
hCSE; standard conditions, 50 mM Tris-HCl pH 8.6
  IC50: 29.9 ± 5.6 µM
HEK293T cells
  maximum increase of cellular ROS: ~ 2 fold
